# Test results: patent US6368788B1 (priority 1987, dated 2002)
# Legend:
# [1] = test system: Pneumocystis carinii; assay: Pneumocystis carinii lung infection in cortisone-immunocompromised rats; assay type: in vivo; details: for Lung (bacteria): mean ± S.E., magnification 400X; for Lymphocytes / Neutrophils / Total Leukocytes / Lymphocytes (% Normal) / Neutrophils (% normal) / Total Leukocytes (% normal): peripheral blood at 79 days; for Lymphocytes (% Normal) / Neutrophils (% normal) / Total Leukocytes (% normal): % of day 0
# Experimental: Corticosteroids were administered to rats to induce an immunocompromised state in which an opportunistic infection with Pneumocystis carinii could be established. The immunocompromised state was induced by administering cortisone acetate im twice weekly at a dose of 25 mg/kg over the entire 12 week course of the study. Pneumocystis carinii lung infection was initiated by intranasal instillation on day 0. Prophylactic tetracycline was administered po in the drinking water ([…]), and peripheral blood differential counts were monitored over the next 12 weeks. In control (untreated) Pneumocystis-infected animals, differential counts, body weight, and lymphocyte counts began dropping at about 30-39 days and lung infection was evident histologically by about day 60-69. At day 80, tetracycline treatment was discontinued in all groups. By day 80 in this animal model, mean body weight of the animals had dropped by approximately 30% from the values recorded on day 0. Groups were comprised of 15 rats each.
# L-Glu-L-Trp treatments were administered according to the following protocol: 10 consecutive daily im injections of 10 μg/kg or 100 μg/kg of L-Glu-L-Trp on days 0 through 9, 30 through 39, and 60 through 69 of the study. Differential cell counts in peripheral blood (TABLE 80) and lung histology (i.e., with enumeration of the number of P. carinii/10 microscopic fields—at 400× magnification) were used to monitor the course of the opportunistic infection.
# [2] = Thoracic cavity tumors: focal radiation therapy then L-Glu-L-Trp, clinical complications; assay type: in vivo, human; details: for Complications: Cardio-Pulm. / Complications: Mortality / Complications: Septic / Complications: Total: 5 × im 100 μg
# Experimental: Surgical removal of thoracic tumors was followed in 38 patients by focal radiation therapy and then a course of L-Glu-L-Trp therapy consisting of 5 daily im injections of 100 μg L-Glu-L-Trp each. Only radiation therapy (and supportive antibiotic therapy) was administered as a control to 56 patients.
# [3] = Complications of pregnancy (Protocol C); design: species or system human; details: in vivo
# Experimental: L-Glu-L-Trp was administered to 34 pregnant women and 27 pregnant women receiving conventional treatment served as a control group. […] Signs of clinical improvement were resolution of weakness and dizziness, increased appetite, and the normalization of the immunological and hematological indices.
# [4] = test system: Shigella dysenterae; assay: Shigella dysentery; design: species or system human; details: in vivo
# Source text: A total 125 patients infected with Shigella dysentery were examined. Fifty-three patients constituted the control group.
# [5] = Ophthalmic diseases, parabulbar or conjunctival instillation; assay type: in vivo, human
# Experimental: Forty one patients (41; 17 men and 24 women; ranging in age from 17 to 68 years) with various eye diseases of infectious and non-infectious origin were treated with L-Glu-L-Trp. Patients having the following infectious, and non-infectious, ophthalmic diseases were entered into the trial: a) nonviral conjunctivitis, keratitis, chronic uveitis, persistent sties, and, focal chorioretinitis; and, b) retinal pigment dystrophy, Grenblad-Stranberg syndrome, and maculophathy, respectively. Five patients were Class II invalids due to vision impairment, 4 were Class III, and 32 were impaired but not invalid. […] L-Glu-L-Trp was administered daily in a single 0.1 mL (10 μg) dose by the parabulbar route (Group 1; n=21), or alternatively one drop of the dipeptide solution (5 μg) was delivered into the conjunctival cavity twice daily on each of 5 consecutive days (Group 2; n=20). Thirty six patients undergoing conventional therapy served as a control group (Group 3; n=36).
# Clinical diagnoses of patients entered into Group 1 were as follows: 4 subjects had diagnosed adenoviral conjunctivitis; 2 subjects, recurring eyelid sties; 3 subjects, chronic serous-plastic uveitis; 3 subjects, central chorioretinitis; 5 subjects, central retinal dystrophy in both eyes; 4 subjects, pigment degeneration of the retina.
# Clinical diagnoses of patients entered into Group 2 were as follows: namely, 7 subjects had diagnosed chronic serous-plastic uveitis, and 13 subjects adenoviral conjunctivitis.
# Vision was assessed using standard measurements: i.e., field of vision, visual acuity, electrophysiological indices. Ophthalmascopic examination was used to evaluate and score corneal epithelial integrity, extent of edema and infiltration of the cornea (all strata), uveitis, retinal inflammation (edema, focal and peripheral changes, exudation, hemorrhage, plasmohemorrhagia), and expansion in the vitreous body. Immune parameters in peripheral blood were also assessed. Following treatment, the trial subjects were followed for not less than 12 months.
# [6] = Dental caries: toothpaste containing L-Glu-L-Trp; assay type: in vivo, human
# Experimental: The use of dental toothpaste containing L-Glu-L-Trp will have the secondary effect of reducing incidence and severity of gingival disease. Patients with odontogenic infections and periapical granulomas can be treated with 100 μg of L-Glu-L-Trp instilled into the foramen at the base of the tooth, or alternatively, L-Glu-L-Trp can be compounded in a filling paste which is packed into the base of the tooth.
# [7] = test system: respiratory viral infections; assay: Nose, ear and throat infections (acute respiratory disease); design: species or system human; details: in vivo
# Experimental: One hundred eighty six subjects (186) with diagnosed acute respiratory disease, including upper airway diseases and viral infections, were treated with L-Glu-L-Trp. A control group consisted of 87 untreated subjects. L-Glu-L-Trp was administered daily im or intranasally at a dosage of 100 μg on each of 3-7 consecutive days. […] Secondary infectious complications were diminished in the treated individuals, and the length of time that medical follow-up was required was also diminished.
# [8] = test system: antibiotic-resistant Staphylococci; assay: Chronic skin diseases caused by antibiotic-resistant Staphylococci (Protocol A2); assay type: in vivo, human
# [9] = Wound healing; design: species or system human; details: in vivo
# Experimental: L-Glu-L-Trp was administered to 37 patients with wounds of various origins, types and localizations. Patients in the control group (24) received conventional treatments. L-Glu-L-Trp was administered daily im (or topically) on each of 10 consecutive days. The im dose was 100 μg.
substance,measurement,setting,value
L-Glu-L-Trp,"Numbers of lung bacteria, % of saline treated control",[1]; 10 μg/kg,about 33%
same,Lung (bacteria),[1]; 10 μg/kg im,53 ± 32 P. carinii bacteria per 10 sections
same,"Numbers of lung bacteria, % of saline treated control",[1]; 100 μg/kg,~43%
same,Lung (bacteria),[1]; 100 μg/kg im,70 ± 33 P. carinii bacteria per 10 sections
same,"Leukocyte counts, % of normal",[1]; day 79,45-47%
same,"Lymphocyte counts, % of normal",[1]; day 79,45%
same,Lymphocytes,[1]; 10 μg/kg im,4.7 ± 1.2 ×10^6/ml
same,Neutrophils,[1]; 10 μg/kg im,2.0 ± 0.7 ×10^6/ml
same,Total Leukocytes,[1]; 10 μg/kg im,8.1 ± 2.3 ×10^6/ml
same,Lymphocytes (% Normal),[1]; 10 μg/kg im,45%
same,Neutrophils (% normal),[1]; 10 μg/kg im,41%
same,Total Leukocytes (% normal),[1]; 10 μg/kg im,47%
same,Lymphocytes,[1]; 100 μg/kg im,4.7 ± 1.4 ×10^6/ml
same,Neutrophils,[1]; 100 μg/kg im,1.5 ± 0.5 ×10^6/ml
same,Total Leukocytes,[1]; 100 μg/kg im,7.8 ± 1.8 ×10^6/ml
same,Lymphocytes (% Normal),[1]; 100 μg/kg im,45%
same,Neutrophils (% normal),[1]; 100 μg/kg im,31%
same,Total Leukocytes (% normal),[1]; 100 μg/kg im,45%
same,Complications: Cardio-Pulm.,"[2]; Esophagus, 22 patients",1
same,Complications: Mortality,"[2]; Esophagus, 22 patients",0
same,Complications: Septic,"[2]; Esophagus, 22 patients",1
same,Complications: Total,"[2]; Esophagus, 22 patients",2
same,Complications: Cardio-Pulm.,"[2]; Lung, 16 patients",0
same,Complications: Mortality,"[2]; Lung, 16 patients",0
same,Complications: Septic,"[2]; Lung, 16 patients",0
same,Complications: Total,"[2]; Lung, 16 patients",1
same,Clinical outcome,"[2]; human, in vivo",decreased the total number of complications
same,Clinical outcome,[3],Decreased fetal hypoxia
same,Clinical outcome,[4],"normalization of fever, reduction of toxemia"
same,Patients with “good response”,"[5]; Group 1, parabulbar",9
same,Patients with “marked favorable response”,"[5]; Group 1, parabulbar",9
same,Patients with “good response”,"[5]; Group 2, instillation",2
same,Patients with “marked favorable response”,"[5]; Group 2, instillation",18
same,Laboratory effects,[5]; in vivo,increase in the number of circulating peripheral blood B- and T-lymphocytes
same,Patients with “poor response”,[5]; in vivo,3
same,Subjects in whom treatment was found effective,[5]; infectious eye diseases,66.7%
same,Patients with marked positive response,"[5]; infectious eye diseases, parabulbar introduction",75%
same,Patients with good response,[5]; instillation,10%
same,Patients with marked positive response,[5]; instillation,90%
same,"Faster recovery than control group, adenoviral conjunctivitis",[5]; marked responses,10 to 13 days
same,"Rise in visual acuity, chronic serous-plastic uveitis",[5]; marked responses,> 0.1
same,Patients with good response,[5]; parabulbar introduction,15%
same,Clinical outcome,[6],reduction of caries
same,Clinical outcome,[7],milder course of respiratory viral infections
same,Clinical outcome,[8]; L-Glu-L-Trp then individualized antibiotic,complete recovery in all patients
same,Increase in antibiotic-sensitivity of the patients' Staphylococci,[8]; patients with secondary T-immunodeficiency,more than 100 fold
same,Clinical outcome,[9],accelerated wound healing
